Several values for one entry are separate records, joined by “and”; a condition that tells them apart may be missing. Equal entries are not always repeated. Entries after “also recorded” stand apart in the source; their conditions may differ.
Tests used:
HEK-293 cells [1] = test: CellTiter-Glo luminescent cell viability assay; type: cell-based; conditions: HEK-293, 1, 10 and 20 μM
Experimental: (§1) Finally, because the strongest inhibitor identified in vitro compound 23 has a favorable permeability coefficient, its potency to inhibit 17β-HSD10 also at the cellular level was determined. First, it was necessary to exclude the possibility that higher concentrations of compound 23 could be unfavorable to cells. The effects of compound 23 on the cellular viability and cytotoxicity of this compound (1, 10, and 20 μM) were determined using CellTiter-Glo Viability Assay and CellTox Green Assay, respectively, on HEK-293 cell line.
(§2) HEK-293 cells in DMEM (Capricorn) were supplemented with fetal bovine serum (10%, Gibco), L-glutamine (2 mM, Lonza), and nonessential amino acid additives (Gibco). Cells were maintained at 37 °C under a humidified atmosphere of 5% CO2. Compound 23 was tested on the HEK-293 cell line on cell viability using CellTox Green (G8741, Promega) and the CellTiter-Glo 2.0 kit (G9241, Promega), respectively, to establish their cytotoxic effect. Using a Tecan Spark 10 M instrument, the measurements were performed as end point methods in the multiplex. For multiplex measurement, 7500 cells were seeded per well in 50 μL of culture media and cultured for 24 h before the addition of selected compounds. […] Next, the CellTiter-Glo Luminescent Cell Viability Assay with an integration time of 500 ms was determined.

17β-HSD10 [2] = target: T1, 17β-HSD10 (Homo sapiens, UniProt Q99714); test: Inhibition type determination with respect to substrate 17β-estradiol (Hanes–Woolf plot); type: biochemical; conditions: compound at 3, 6 and 9 μM, 17β-estradiol 12.5–75 μM, NAD+ 500 μM
T1 construct: inferred from Ni-NTA purification with imidazole elution; made in house; host or cells: E. coli BL21 (DE3)
T1 sequence (Q99714 1-261): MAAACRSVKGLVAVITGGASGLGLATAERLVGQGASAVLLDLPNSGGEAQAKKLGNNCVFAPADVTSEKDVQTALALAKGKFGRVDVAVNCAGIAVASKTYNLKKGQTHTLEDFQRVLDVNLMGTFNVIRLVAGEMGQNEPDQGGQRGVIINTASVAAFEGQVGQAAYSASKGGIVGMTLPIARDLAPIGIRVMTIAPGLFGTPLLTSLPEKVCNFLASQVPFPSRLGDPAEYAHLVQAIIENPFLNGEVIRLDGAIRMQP
Experimental: The uninhibited enzymatic reaction (0 μM 23) was compared with the enzymatic reaction at three concentrations of compound 23 (3, 6, and 9 μM) using 17β-estradiol as the substrate. […] Such inhibitor binds the enzyme preventing the formation of the enzyme–substrate complex. […] This hypothesis was confirmed by the kinetic experiment. The obtained data were linearized by using Hanes–Woolf plot (Figure 2).
The type of inhibition of compound 23 was determined with respect to the substrate 17β-estradiol. The inhibitor was determined at three different concentrations (3, 6, and 9 μM) in combination with different concentrations of 17β-estradiol (12.5–75 μM) and a saturated NAD^+ concentration (500 μM). As vehicle control, DMSO was used. The obtained data were analyzed using GraphPad Prism 8.4.3 (GraphPad Software Inc.). All measurements were performed in triplicate.

Caco-2 cells = test system: Caco-2 cells; design: method as in PMID 30296546; conditions: cited from earlier work
[3] = target: T2, 17β-HSD10 overexpressed in HEK-293 (HEK-293-HSD10 cell line) (Homo sapiens, UniProt Q99714); test: Fluorogenic (−)–CHANA assay for cellular inhibition of 17β-HSD10; type: cell-based; conditions: HEK-293-HSD10, (−)–CHANA probe
T2 construct: expressed in transfected cells; host or cells: HEK-293 (HEK-293-HSD10)
T2 sequence (Q99714 1-261): T1 sequence (Q99714 1-261)
Experimental: Identical concentrations of compound 23 were used for fluorogenic cellular assay using a special probe (−)–CHANA as a substrate for 17β-HSD10 overexpressed in HEK-293 (HEK-293-HSD10 cell line).[15] […] The exact IC50 value at the cellular level was not possible to determine because of some method interferences, as well as its unknown cytotoxic characteristics. Higher IC50 (>20 μM) is in agreement with the high concentration of 17β-HSD10 in the model cell line.[15]
A previously published cell line with overexpressed 17β-HSD10 (HEK-293-HSD10)[15] was used to measure 17β-HSD10 inhibition in the cellular environment. For this purpose, the (−)–CHANA fluorogenic probe was used. The cells (density 1 × 10^4 cells per well) were seeded in DMEM (200 μL) without phenol red (Gibco). […] The changes in fluorescent intensities were measured immediately after (-)-CHANA addition and 2 h later. The fluorescence intensities of the CHANK product were taken by using the TECAN SPARK 10 M instrument (Ex/Em = 380/525 nm). The residual 17β-HSD10 activity was calculated as ΔF between 2 and 0 h after (-)-CHANA treatment, and the data were normalized between nontreated HEK-293-HSD10 and native, nontransfected HEK-293 controls (using relative response ratio). […]

[4] = design: method as in PMID 30296546; conditions: cited from earlier work
17β-HSD10 [5] = target: T1, 17β-HSD10; test: Inhibition of allopregnanolone to 5α-dihydroprogesterone transformation by recombinant 17β-HSD10; type: biochemical; conditions: 20 μM allopregnanolone as substrate; mean ± SEM (n = 4)
Experimental: Compound 23 (5 mM stock solution) was diluted with DMSO to the working concentrations. DMSO was used as vehicle control. The enzyme activity was determined as described in the previous section; the only difference was the replacement of 25 μM 17β-estradiol with 20 μM allopregnanolone as 17β-HSD10 substrate. For IC50 value determination, dose–response inhibition at 10 different concentrations of inhibitor (0.16–33.75 μM) was determined, and the data were analyzed by GraphPad Prism 8.4.3 (GraphPad Software Inc.). All measurements were performed in a tetraplicate.

HEK-293 cells [6] = test: CellTox Green cytotoxicity assay; type: cell-based; conditions: HEK-293, up to 20 μM
Experimental: as §1, §2

In the case of `C[C@@]12CCC[C@H]1[C@@H]1CC=C3C[C@@H](OC(=O)CCCCC(=O)O)CC[C@]3(C)[C@H]1CC2` [Compound 23, Androst-5-en-3β-yl Hemiadipate], the “cellular viability (CellTiter-Glo)” value (HEK-293 cells [1]) is given as “does not influence HEK-293 viability”, the type of inhibition (17β-HSD10 [2]) is given as “competitive” and the “Caco-2 cell permeability (50 μM) Papp” value (Caco-2 cells) is given as 3.1 × 10^–6 cm/s. For the same molecule, the inhibition at 25 µM ([3]; HEK293, highest concentration 25 μM, read-out: inhibition of 17β-HSD10 activity in cells) was about 50%, the IC50 ([3]; exact value not determinable, read-out: IC50 at the cellular level) was over 20 µM and the “rat plasma stability, % remaining after 8 h” value [4] was 32%. The IC50 (17β-HSD10 [5]) was ~15.2 µM and 15.2 µM and the “cytotoxicity (CellTox Green)” value (HEK-293 cells [6]) was “not cytotoxic; also recorded: not toxic”.
